Assay results taken from paper PMC5522529, “Mechanisms of Paradoxical Activation of AMPK by the Kinase Inhibitors SU6656 and Sorafenib” (Cell Chemical Biology, 2017).

Key:
[1] = system: LKB1 versus AMPK; set-up: method as in MRC Kinase Inhibitor Database; conditions: ref MRC Kinase Inhibitor Database; cited from earlier work
[2] = molecular target: T1, human AMPK-α2 Y436F mutant (Homo sapiens, UniProt P54646, Y436F); assay: AMPK activity of FLAG-tagged Y436F AMPK-α2 expressed in HEK293 cells; type: cell-based; conditions: SU6656 100 μM, phenformin 10 mM, A23187 10 μM, 1 hr
T1 construct: expressed in transfected cells; host or cells: HEK293 (transient transfection)
Protocol: (§1) Top: AMPK activity (mean ± SEM, n = 4); bottom: western blots showing phosphorylation of Thr172 on AMPK, and of ERK1/2, in cells treated with DMSO (control), SU6656 (100 μM), or PP2 (100 nM) (n = 2). (B) As (A), but in SYF cells. (C) HeLa cells were transfected with DNAs encoding GFP alone, or GFP fused to WT, Y261F/Y365F (FF), or Y36F/Y261F/Y365F (FFF) mutants of LKB1; cells were treated with increasing concentrations of SU6656 for 1 hr and AMPK activity determined (mean ± SEM, n = 4). See also Figure S1. (D) HEK293 cells were transfected with DNAs encoding FLAG-tagged AMPK-α2 with or without a Y436F mutation. Cells were incubated with DMSO (control), 100 μM SU6656, 10 mM phenformin, or 10 μM A23187 for 1 hr; AMPK complexes were immunoprecipitated using anti-FLAG antibody and assayed. The top panels show kinase activities (mean ± SD, n = 3); the bottom panels show blots from the same experiment (n = 2). In all panels, asterisks indicate significant differences from DMSO controls; in (D), there were no significant differences between the WT and Y463F mutant. **p < 0.01, ****p < 0.0001.

[3] = molecular target: T2, α1 kinase domain (α1-KD, residues 1–312) (Homo sapiens, UniProt Q13131); assay: Activity of FLAG-tagged α1 kinase domain expressed in HEK293 cells; type: cell-based; conditions: 1 hr
T2 construct: amplifying residues 1-312 with an N-terminal FLAG-tag; expressed in transfected cells; host or cells: HEK293 (transient transfection, pcDNA5 FRT)
Description: (§2) We next expressed an FLAG-tagged α1 kinase domain (α1-KD, residues 1–312) by transient transfection in HEK293 cells, treated the cells with various AMPK activators, and then assayed both the expressed α1-KD (precipitated using anti-FLAG) and endogenous full-length α1 complexes (precipitated using anti-α1 antibodies recognizing an epitope outside the α1-KD). […] This was also observed with A23187, as expected since this ionophore increases intracellular Ca^2+ and activates the alternate upstream kinase CaMKK2.
(§3) The α1-KD was precipitated using anti-FLAG and endogenous AMPK complexes using anti-α1 antibody, and activity determined. Results (mean ± SD, n = 2) are expressed relative to activities in DMSO controls. (B) Western blots (n = 2) using the indicated antibodies; samples from experiment in (A). (C) DNAs encoding FLAG-tagged AMPK-α1 (WT or AT mutant) were expressed by transient transfection in HEK293 cells, the cells treated with increasing concentrations of SU6656 for 1 hr, AMPK complexes precipitated with anti-FLAG, and activity measured. Results (mean ± SD, n = 3) are expressed relative to the DMSO control. […] Results (mean ± SD, n = 3) are expressed relative to the DMSO control. **p < 0.01, ***p < 0.001, ****p < 0.0001, ^†††p < 0.001; ns, not significant.
A plasmid encoding the AMPK-α2 kinase domain (α2-KD) was made by amplifying residues 1-310 with 5' BamH1 and 3' Xho1 sites, the resulting PCR product was cloned into pGEX6P2. Point mutations were generated using the Quikchange II site-directed mutagenesis kit (Stratagene) and confirmed by DNA sequencing.

[4] = molecular target: T3, AMPK-α1 AA mutant (Homo sapiens, UniProt Q13131, K40A/K42A); assay: AMPK activity of FLAG-tagged AMPK-α1 K40A/K42A (AA) mutant expressed in HEK293 cells; type: cell-based; conditions: AA mutant FLAG-α1; same concentrations, 1 hr
T3 construct: Plasmid encoding full-length human AMPK-α1; expressed in transfected cells; host or cells: HEK293
Description: (§4) (B) Western blotting of the same preparations as in (A). […] (D) Allosteric activation of WT and mutant α1β1γ1 complexes by MT 63-78, curve fitting as for (C). […] (E) Allosteric activation of WT and mutant α1β1γ1 complexes by AMP. Data were fitted to the equation for activation/inactivation by AMP ([Gowans et al., 2013]). […] (F) Activation of WT and AA mutant by various AMPK activators in HEK293 cells. […] FLAG-tagged complexes were isolated by immunoprecipitation and AMPK activity determined (mean ± SEM, n = 2).
(§5) We next expressed the FLAG-tagged WT or AA mutant of AMPK-α1 by transient transfection in HEK293 cells, treated with various agents, and measured AMPK activity in anti-FLAG immunoprecipitates. In Figure 4F, the results are expressed as absolute activities and are accompanied by blots showing Thr172 phosphorylation.

[5] = molecular target: human AMPK-α2 (WT) (Homo sapiens, UniProt P54646); assay: AMPK activity of FLAG-tagged WT AMPK-α2 expressed in HEK293 cells; type: cell-based; conditions: SU6656 100 μM, phenformin 10 mM, A23187 10 μM, 1 hr
Protocol: as §1

[6] = molecular target: T4, AMPK-α1 AT mutant (Homo sapiens, UniProt Q13131, A167T); assay: AMPK activity of FLAG-tagged AMPK-α1 AT mutant expressed in HEK293 cells; type: cell-based; conditions: AT mutant FLAG-α1, 1 hr
T4 construct: we expressed FLAG-tagged full-length AMPK-α1 either as the WT or the AT mutant; expressed in transfected cells; host or cells: HEK293 (transient transfection)
Description: as §3
To confirm that it acted by binding at the catalytic site, we expressed FLAG-tagged full-length AMPK-α1 either as the WT or the AT mutant.

[7] = molecular target: T5, AMPK-α1 (WT) (Homo sapiens, UniProt Q13131); assay: AMPK activity of FLAG-tagged AMPK-α1 (WT) expressed in HEK293 cells; type: cell-based; conditions: 1 hr
T5 construct: we expressed FLAG-tagged full-length AMPK-α1 either as the WT or the AT mutant; expressed in transfected cells; host or cells: HEK293
Description: as §4, §5
The α1-KD was precipitated using anti-FLAG and endogenous AMPK complexes using anti-α1 antibody, and activity determined. […] (B) Western blots (n = 2) using the indicated antibodies; samples from experiment in (A). (C) DNAs encoding FLAG-tagged AMPK-α1 (WT or AT mutant) were expressed by transient transfection in HEK293 cells, the cells treated with increasing concentrations of SU6656 for 1 hr, AMPK complexes precipitated with anti-FLAG, and activity measured.

[8] = molecular target: T6, endogenous full-length α1 complexes (Homo sapiens, UniProt Q13131); assay: Activity of endogenous full-length α1 complexes in HEK293 cells; type: cell-based; conditions: 1 hr
T6 construct: endogenous in cells
Description: as §2, §3

T5 sequence (Q13131 whole entry): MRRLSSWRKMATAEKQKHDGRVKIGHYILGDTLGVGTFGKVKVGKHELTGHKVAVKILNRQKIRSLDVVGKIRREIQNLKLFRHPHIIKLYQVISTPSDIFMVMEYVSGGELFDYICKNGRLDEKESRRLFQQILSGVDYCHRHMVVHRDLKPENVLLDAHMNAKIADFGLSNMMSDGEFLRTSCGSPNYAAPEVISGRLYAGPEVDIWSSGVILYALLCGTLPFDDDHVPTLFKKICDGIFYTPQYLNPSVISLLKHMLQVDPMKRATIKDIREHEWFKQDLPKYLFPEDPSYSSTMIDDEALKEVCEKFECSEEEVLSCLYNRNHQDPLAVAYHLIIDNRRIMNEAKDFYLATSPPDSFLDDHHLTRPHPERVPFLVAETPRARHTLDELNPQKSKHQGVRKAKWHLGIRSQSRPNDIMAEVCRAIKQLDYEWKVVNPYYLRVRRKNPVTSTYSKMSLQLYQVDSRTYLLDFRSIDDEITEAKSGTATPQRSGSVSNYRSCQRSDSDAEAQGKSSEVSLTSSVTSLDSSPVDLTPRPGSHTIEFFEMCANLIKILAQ
T5 sequence (P54619 whole entry partner): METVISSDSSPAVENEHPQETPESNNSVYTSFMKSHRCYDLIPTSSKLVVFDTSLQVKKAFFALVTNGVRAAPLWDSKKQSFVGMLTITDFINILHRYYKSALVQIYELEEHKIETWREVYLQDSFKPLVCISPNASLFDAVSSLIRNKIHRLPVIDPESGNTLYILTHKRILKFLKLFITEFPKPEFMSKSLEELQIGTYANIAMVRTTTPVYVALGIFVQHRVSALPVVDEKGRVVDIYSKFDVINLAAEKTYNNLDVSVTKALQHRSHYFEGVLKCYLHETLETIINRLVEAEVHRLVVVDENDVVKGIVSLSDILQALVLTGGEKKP
T6 sequence (Q13131 whole entry): as the sequence (Q13131 whole entry) above
T6 sequence (P54619 whole entry partner): as the sequence (P54619 whole entry partner) above
T4 sequence (Q13131 whole entry A167T): as the sequence (Q13131 whole entry) above, with A167T counted along it
T4 sequence (P54619 whole entry partner): as the sequence (P54619 whole entry partner) above
T3 sequence (Q13131 whole entry K40A/K42A): as the sequence (Q13131 whole entry) above, with K40A, K42A counted along it
T3 sequence (P54619 whole entry partner): as the sequence (P54619 whole entry partner) above
T2 sequence (Q13131 1-312): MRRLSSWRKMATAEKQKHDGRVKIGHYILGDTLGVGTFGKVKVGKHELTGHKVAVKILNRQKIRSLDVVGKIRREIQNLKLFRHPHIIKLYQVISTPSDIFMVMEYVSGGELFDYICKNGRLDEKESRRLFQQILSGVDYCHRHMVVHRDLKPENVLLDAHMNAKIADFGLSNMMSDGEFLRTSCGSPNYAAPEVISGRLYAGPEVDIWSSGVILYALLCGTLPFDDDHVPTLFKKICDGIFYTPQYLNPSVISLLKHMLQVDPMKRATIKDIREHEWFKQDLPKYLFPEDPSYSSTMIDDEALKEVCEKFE
human AMPK-α2 (WT), sequence (P54646 whole entry): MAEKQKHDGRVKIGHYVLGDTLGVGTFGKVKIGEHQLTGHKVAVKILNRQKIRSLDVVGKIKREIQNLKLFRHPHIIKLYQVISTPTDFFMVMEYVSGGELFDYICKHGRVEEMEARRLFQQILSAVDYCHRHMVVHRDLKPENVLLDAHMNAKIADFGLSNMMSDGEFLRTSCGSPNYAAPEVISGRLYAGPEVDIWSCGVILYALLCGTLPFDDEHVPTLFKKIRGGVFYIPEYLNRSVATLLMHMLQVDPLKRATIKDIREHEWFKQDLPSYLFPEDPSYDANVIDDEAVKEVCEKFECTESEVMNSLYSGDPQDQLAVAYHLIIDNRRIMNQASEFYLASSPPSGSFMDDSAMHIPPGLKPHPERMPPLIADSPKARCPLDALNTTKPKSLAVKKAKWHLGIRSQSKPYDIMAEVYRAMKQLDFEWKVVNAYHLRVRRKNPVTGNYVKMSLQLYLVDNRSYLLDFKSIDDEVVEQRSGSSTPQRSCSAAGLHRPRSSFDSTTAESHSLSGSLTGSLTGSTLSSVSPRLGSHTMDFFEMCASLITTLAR
human AMPK-α2 (WT), sequence (P54619 whole entry partner): as the sequence (P54619 whole entry partner) above
T1 sequence (P54646 whole entry Y436F): as the sequence (P54646 whole entry) above, with Y436F counted along it
T1 sequence (P54619 whole entry partner): as the sequence (P54619 whole entry partner) above

Which “potency of LKB1 inhibition relative to AMPK inhibition” value [1] does the source give for `c1cc(-c2cnn3cc(-c4ccc(OCCN5CCCCC5)cc4)cnc23)ccn1` [compound C] here?
The value was “inhibit LKB1 with similar potency to AMPK”.

With `[H]/N=C(/N)N/C(=N/[H])NCCc1ccccc1` [phenformin] as the molecule, how does the “AMPK activation response with Y436F mutation” value [2] read?
Its value is “unaffected by the Y436F mutation”.

And the “kinase activity / Thr172 phosphorylation” value [3]?
Its value is “failed to activate or cause Thr172 phosphorylation”.

What about the “effect of AA mutation on AMPK activation” value [4] of the same molecule?
Its value is “abolished”.

And the “AMPK activity in anti-FLAG immunoprecipitates” value [5]?
Its value is “all activated AMPK”.

And the AMPK activity [6]?
Its AMPK activity is “activated equally well”.

And the AMPK activity ([7]; WT FLAG-α1 (comparison with AT mutant))?
The AMPK activity was “activated equally well”.

And the “AMPK activity and Thr172 phosphorylation” value ([7]; WT FLAG-α1, A769662 300 μM, berberine 300 μM, phenformin 10 mM, troglitazone 100 μM, oligomycin 1 μM, SU6656 100 μM)?
The value was “activated AMPK and caused Thr172 phosphorylation”.

And the “kinase activity / Thr172 phosphorylation” value [8]?
The value was “doing this with the endogenous complexes”.
